Data on eight compounds can be found in ChEMBL document CHEMBL1201862, “PubChem BioAssay data set” (2004).

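These data come from cells grown in 96-well plates and exposed to compound for 48 hours at five concentrations. Abbreviation: GI50, concentration required for 50% inhibition of growth.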 Active and inactive are the calls of the source. Rule as the data show it: active = GI50 up to about 1.1 µM and inactive = higher.

Test systems include UACC-257; OVCAR-5; HOP-92; SK-MEL-5; T47D; SW-620; K562; BT-549; MCF7; OVCAR-8; SNB-19; M14; Malme-3M; LOX IMVI; SR; UACC-62; MDA-N; NCI-H460; SNB-75.
Experiment in all cases: growth of human tumour cells (NCI), 48 h

For the compound `O=C1CC(c2ccccc2)n2c(nc3ccccc32)N1` (centres undefined), the GI50 in the assay with UACC-257 is 41.9 µM (inactive); in the assay on OVCAR-5 it was > 100 µM (inactive); in the assay on HOP-92 it was 17.9 µM (inactive); in the assay with SK-MEL-5, 20.5 µM (inactive); with T47D, 25.4 µM (inactive); in the assay with SW-620, 51.9 µM (inactive). Also, the GI50 in the assay with K562 was 23.7 µM (inactive); in the assay on BT-549 it was 29.2 µM (inactive); in the assay on MCF7, 67.1 µM (inactive); in the assay with OVCAR-8, > 100 µM (inactive); in the assay on SNB-19, > 100 µM (inactive); in the assay with M14, > 100 µM (inactive). Also, the GI50 was 38.1 µM (inactive) in the assay with Malme-3M; 39.4 µM (inactive) in the assay with LOX IMVI; 36.2 µM (inactive) in the assay on SR; 72.9 µM (inactive) in the assay with UACC-62; 73.5 µM (inactive) with MDA-N; > 100 µM (inactive) with NCI-H460.
Take `CC(C)C(=O)NCC[C@@H](CNC(=O)OC(C)(C)C)NC(=O)OC(C)(C)C`: the GI50 in the assay with UACC-257, with SNB-75, in the assay with OVCAR-5, in the assay on HOP-92, in the assay with SK-MEL-5 and with T47D was > 100 µM (inactive) throughout. Moreover, the GI50 in the assay with SW-620, in the assay with K562, with BT-549, with MCF7, with OVCAR-8 and in the assay on SNB-19 was > 100 µM (inactive) in each case. Besides, the GI50 in the assay on M14, in the assay with Malme-3M, in the assay with SR, in the assay with UACC-62, in the assay with MDA-N and with NCI-H460 was > 100 µM (inactive) in each case.
With `O=c1c2cc(-c3ccccc3)sc2nc2n1N=C(c1ccc(Cl)cc1)CS2`, the GI50 with UACC-257 is > 100 µM (inactive); in the assay on SNB-75, > 100 µM (inactive); in the assay on OVCAR-5, > 100 µM (inactive); in the assay on HOP-92, > 100 µM (inactive); in the assay on SK-MEL-5, > 100 µM (inactive); with T47D it was 57.5 µM (inactive). In addition, the GI50 in the assay with SW-620, with K562, in the assay on BT-549, in the assay on MCF7, with OVCAR-8 and with Malme-3M was > 100 µM (inactive) each time. Further, the GI50 with LOX IMVI, with SR, in the assay with UACC-62, in the assay with MDA-N and in the assay with NCI-H460 was > 100 µM (inactive) each time.
Turning to `COc1ccc(C2SCC(=O)N2c2ccc(-c3ccc(-n4c(-c5ccccc5)nc5ccccc5c4=O)cc3)cc2)cc1OC` (centres undefined), the GI50 was 61.5 µM (inactive) in the assay on UACC-257; 64.1 µM (inactive) in the assay on SNB-75; > 100 µM (inactive) with HOP-92; 22.4 µM (inactive) in the assay on T47D; 73.5 µM (inactive) in the assay on SW-620; 23.3 µM (inactive) in the assay with K562. The GI50 with BT-549 was 18.5 µM (inactive); in the assay with MCF7, 27.7 µM (inactive); in the assay on OVCAR-8, 27.5 µM (inactive); in the assay with SNB-19 it was 84.5 µM (inactive); with M14, 52.7 µM (inactive); with Malme-3M it was 81.8 µM (inactive). In addition, the GI50 with LOX IMVI is 17.8 µM (inactive); with SR, 26.2 µM (inactive); in the assay with UACC-62 it was 29.2 µM (inactive); in the assay on MDA-N it was 59.7 µM (inactive); in the assay on NCI-H460 it was 32.8 µM (inactive).
As to `Cc1ccc(S(=O)(=O)n2cc(-c3cnc(N)c(Br)n3)c3ccccc32)cc1`, the GI50 in the assay with UACC-257 is 12.9 µM (inactive); in the assay on SNB-75, 1.42 µM (inactive); in the assay on OVCAR-5 it was 4.39 µM (inactive); in the assay on HOP-92, 3.94 µM (inactive); in the assay on SK-MEL-5, 2.91 µM (inactive); in the assay on T47D, 6.76 µM (inactive). Also, the GI50 was 1.04 µM (active) with SW-620; 0.841 µM (active) in the assay with K562; 22.7 µM (inactive) in the assay with BT-549; 0.757 µM (active) in the assay on MCF7; 4.06 µM (inactive) in the assay on OVCAR-8; 1.01 µM (active) in the assay on SNB-19. In addition, the GI50 was 1.37 µM (inactive) with M14; 2.94 µM (inactive) in the assay with LOX IMVI; 0.764 µM (active) with SR; 3.7 µM (inactive) in the assay with UACC-62; 0.246 µM (active) with MDA-N; 3.18 µM (inactive) in the assay on NCI-H460.
Consider `COc1cc(S(=O)(=O)Nc2ccc(-c3csc(N4C(=O)CSC4c4cccc(Oc5ccccc5)c4)n3)cc2)ccc1Cl` (centres undefined), for which the GI50 in the assay with SNB-75 was 58.1 µM (inactive); with OVCAR-5 it was > 100 µM (inactive); in the assay with HOP-92, 46.7 µM (inactive); with SK-MEL-5, 32.8 µM (inactive); in the assay on T47D, 7.48 µM (inactive); in the assay with SW-620, 43.8 µM (inactive). Also, the GI50 in the assay with K562 was 31.9 µM (inactive); in the assay with BT-549 it was 23.7 µM (inactive); in the assay with MCF7, 20.6 µM (inactive); with OVCAR-8, 47 µM (inactive); with SNB-19 it was 77.8 µM (inactive); with M14 it was 53 µM (inactive). Moreover, the GI50 in the assay with Malme-3M is 43.4 µM (inactive); with LOX IMVI, 32.7 µM (inactive); in the assay with SR, 33.7 µM (inactive); in the assay on UACC-62, 36.9 µM (inactive); in the assay with MDA-N, 23.9 µM (inactive).
As to `O=c1[nH]cc(/N=C/c2cc(Cl)cc(Cl)c2O)c(=O)[nH]1`, the GI50 is 27.7 µM (inactive) in the assay on UACC-257; 88.1 µM (inactive) in the assay with OVCAR-5; 27.4 µM (inactive) with HOP-92; 19.1 µM (inactive) in the assay on SK-MEL-5; 21.7 µM (inactive) in the assay with T47D; 27.8 µM (inactive) in the assay with K562. Moreover, the GI50 is 45.1 µM (inactive) in the assay with BT-549; 25.8 µM (inactive) with MCF7; 43.1 µM (inactive) in the assay with OVCAR-8; 32.8 µM (inactive) with SNB-19; 21 µM (inactive) in the assay on M14; 20.8 µM (inactive) in the assay with Malme-3M. Besides, the GI50 is 14.3 µM (inactive) in the assay with SR, 26.5 µM (inactive) in the assay with UACC-62, 29.2 µM (inactive) in the assay on MDA-N and 39.9 µM (inactive) in the assay on NCI-H460.
With `CCO[C@H]1O[C@@H]2OC3(C)CCC4[C@H](C)CCC([C@H]1C)[C@]42OO3` (some centres undefined), the GI50 is > 74.1 µM (inactive) with SNB-75; > 30.2 µM (inactive) in the assay on OVCAR-5; > 100 µM (inactive) with HOP-92; 16 µM (inactive) in the assay with SK-MEL-5; 7.11 µM (inactive) in the assay on T47D; > 44.9 µM (inactive) in the assay with SW-620. Also, the GI50 with K562 is 15.9 µM (inactive); in the assay with BT-549, > 100 µM (inactive); in the assay with MCF7 it was 19.4 µM (inactive); with OVCAR-8, 0.881 µM (active); with SNB-19, > 100 µM (inactive); in the assay with M14, 53.5 µM (inactive). Moreover, the GI50 with Malme-3M is 42.3 µM (inactive); in the assay with LOX IMVI, 24.2 µM (inactive); in the assay with SR it was 10.3 µM (inactive); in the assay on UACC-62 it was > 67.1 µM (inactive); in the assay with MDA-N, 49.7 µM (inactive); in the assay on NCI-H460, > 55 µM (inactive).
